Source: ChEMBL document CHEMBL5126603, “Discovery of Clinical Candidate CHF-6366: A Novel Super-soft Dual Pharmacology Muscarinic Antagonist and β2 Agonist (MABA) for the Inhaled Treatment of Respiratory Diseases” (J Med Chem, 2022)

Experiments:
Trachea [1] = experiment: In vivo bifunctional antagonist activity at muscarinic M3 receptor /agonist activity at beta-2 adrenoceptor in Dunkin-Hartley guinea pig trachea assessed as inhibition of carbachol induced contraction; type: functional, tissue-based; details: Cavia porcellus
[2] = Metabolic stability in human plasma assessed as half life at 5 uM measured upto 120 mins by LC-MS/MS analysis; type: ADME, cell-free
[3] = Metabolic stability in rat plasma assessed as half life at 5 uM measured upto 120 mins by LC-MS/MS analysis; type: ADME, cell-free
[4] = Metabolic stability in human lung S9 fraction assessed as half life at 1 uM measured after 0 to 60 mins in presence of NADPH by LC-MS/MS analysis; type: ADME, subcellular; details: time 0-60 min
Trachea [5] = experiment: In vivo bifunctional antagonist activity at muscarinic M3 receptor /agonist activity at beta-2 adrenoceptor in Dunkin-Hartley guinea pig trachea assessed as time duration for inhibition of carbachol induced contraction measured […]; type: functional, Cavia porcellus
[6] = Metabolic stability in Dunkin-Hartley guinea pig plasma assessed as half life at 5 uM measured upto 120 mins by LC-MS/MS analysis; type: ADME, cell-free, Cavia porcellus
Trachea [7] = experiment: (§1) Bifunctional antagonist activity at muscarinic M3 receptor /agonist activity at beta-2 adrenoceptor in Dunkin-Hartley guinea pig trachea assessed as inhibition of acetylcholine-induced bronchoconstriction at 1 nmol/Kg, IT(Intratracheal) measured after 15 mins by Konzett-Roessler methodology relative to control; type: functional; details: Cavia porcellus, 0.25 h
[8] = Half life in Dunkin-Hartley guinea pig plasma at 500 nmol/Kg, IT(Intratracheal) measured after 72 hrs by LC/MS-MS analysis; type: ADME, cell-free, Cavia porcellus; details: inhaled or intranasal
[9] = AUClast in Dunkin-Hartley guinea pig plasma at 500 nmol/Kg, IT(Intratracheal) measured after 72 hrs by LC/MS-MS analysis; type: ADME, cell-free, Cavia porcellus; parameters: time 72 hrs, dose 500 nmol/kg, route it(Intratracheal); details: inhaled or intranasal
Trachea [10] = experiment: as §1, with “30” for “15”; type: functional; details: Cavia porcellus, 0.5 h
[11] = Mutagenicity in Escherichia coli assessed as induction of reverse mutation by Ames test; type: toxicity
[12] = Tmax in Dunkin-Hartley guinea pig plasma at 500 nmol/Kg, IT(Intratracheal) measured after 72 hrs by LC/MS-MS analysis; type: ADME, cell-free, Cavia porcellus; details: inhaled or intranasal
[13] = Tmax in Dunkin-Hartley guinea pig lung at 500 nmol/Kg, IT(Intratracheal) measured after 72 hrs by LC/MS-MS analysis; type: ADME, tissue-based, Cavia porcellus; details: inhaled or intranasal
[14] = Mutagenicity in Salmonella typhimurium assessed as induction of reverse mutation by Ames test; type: toxicity; details: salmonella enterica subsp. enterica serovar typhimurium
Trachea [15] = experiment: as §1, with “5” for “15”; type: functional; details: Cavia porcellus
[16] = AUClast in Dunkin-Hartley guinea pig lung at 500 nmol/Kg, IT(Intratracheal) measured after 72 hrs by LC/MS-MS analysis; type: ADME, tissue-based, Cavia porcellus; details: in vivo, inhaled_or_intranasal
[17] = AUCinfinity in Dunkin-Hartley guinea pig lung at 500 nmol/Kg, IT(Intratracheal) measured after 72 hrs by LC/MS-MS analysis; type: ADME, tissue-based, Cavia porcellus; parameters: dose 500 nmol/kg, time 72 hrs, route it(Intratracheal); details: in vivo, inhaled_or_intranasal
[18] = Cmax in Dunkin-Hartley guinea pig lung at 500 nmol/Kg, IT(Intratracheal) measured after 72 hrs by LC/MS-MS analysis; type: ADME, tissue-based, Cavia porcellus; parameters: time 72 hrs, dose 500 nmol/kg, route it(Intratracheal); details: inhaled or intranasal
[19] = Half life in Dunkin-Hartley guinea pig lung at 500 nmol/Kg, IT(Intratracheal) measured after 72 hrs by LC/MS-MS analysis; type: ADME, tissue-based, Cavia porcellus; details: inhaled or intranasal
[20] = AUCinfinity in Dunkin-Hartley guinea pig plasma at 500 nmol/Kg, IT(Intratracheal) measured after 72 hrs by LC/MS-MS analysis; type: ADME, cell-free, Cavia porcellus; parameters: dose 500 nmol/kg, time 72 hrs, route it(Intratracheal); details: inhaled or intranasal
[21] = Cmax in Dunkin-Hartley guinea pig plasma at 500 nmol/Kg, IT(Intratracheal) measured after 72 hrs by LC/MS-MS analysis; type: ADME, cell-free, Cavia porcellus; parameters: dose 500 nmol/kg, time 72 hrs, route it(Intratracheal); details: inhaled or intranasal

**Q.** Which IC50 (Trachea [1]) does the source give for `COc1cc(C(=O)OCCCCNC[C@H](O)c2ccc(O)c3[nH]c(=O)ccc23)ccc1COc1cccc([C@@H](NC(=O)O[C@H]2CN3CCC2CC3)c2ccccc2)c1` here?
**A.** Its IC50 is 1.26 nM.

**Q.** What about the half-life at 5 µM [2] of the same compound?
**A.** The half-life at 5 µM was 21 min.

**Q.** What about the half-life at 5 µM [3] of the same compound?
**A.** Its half-life at 5 µM is 12 min.

**Q.** And the half-life at 1 µM [4]?
**A.** Its half-life at 1 µM is 89.3 min.

**Q.** What about the Time (Trachea [5]) of the same compound?
**A.** Its Time is under 135 min.

**Q.** And the half-life at 5 µM [6]?
**A.** The half-life at 5 µM was 83.5 min.

**Q.** For `O=C(N[C@@H](c1ccccc1)c1cccc(OCc2cccc(C(=O)OCCCCNC[C@H](O)c3ccc(O)c4[nH]c(=O)ccc34)c2)c1)O[C@H]1CN2CCC1CC2`, which IC50 (Trachea [1]) is on record?
**A.** The IC50 was 0.501 nM.

**Q.** What about the half-life at 5 µM [2] of the same compound?
**A.** The half-life at 5 µM was under 5 min.

**Q.** And the half-life at 5 µM [3]?
**A.** The half-life at 5 µM was 103 min.

**Q.** What about the half-life at 1 µM [4] of the same compound?
**A.** The half-life at 1 µM was 17.2 min.

**Q.** What about the Time (Trachea [5]) of the same compound?
**A.** Its Time is over 225 min.

**Q.** With `O=C(NC(c1ccccc1)c1cccc(OCc2ccc(C(=O)OCCCCNC[C@H](O)c3ccc(O)c4[nH]c(=O)ccc34)cc2)c1)O[C@H]1CN2CCC1CC2` (mixture of isomers) as the compound, how does the IC50 (Trachea [1]) read?
**A.** The IC50 was 0.0794 nM.

**Q.** What about the half-life at 5 µM [2] of the same compound?
**A.** Its half-life at 5 µM is under 5 min.

**Q.** And the half-life at 5 µM [3]?
**A.** The half-life at 5 µM was under 5 min.

**Q.** What about the Time (Trachea [5]) of the same compound?
**A.** The Time was over 270 min.

**Q.** What does the source list for `O=c1ccc2c([C@@H](O)CNCCCCO)ccc(O)c2[nH]1`?
**A.** inhibition in vivo at 0.001 µmol/kg (Trachea [7]): 23.2%; half-life [8]: 464 min; AUC(0-t) at 72 h [9]: 30.7 ng·h/mL; inhibition in vivo at 0.001 µmol/kg (Trachea [10]): 22%; Activity [11]: Non-Toxic; Tmax [12]: 4.98 min; Tmax [13]: 4.98 min; Activity [14]: Non-Toxic; inhibition in vivo at 0.001 µmol/kg (Trachea [15]): 51.4%; AUClast [16]: 2429 ng·h/g; AUC [17]: 3517 ng·h/g; Cmax [18]: 334 ng/g; half-life [19]: 858 min; AUC(0-inf) [20]: 58.9 ng·h/mL; Cmax [21]: 13.8 ng/g

**Q.** Which inhibition in vivo at 0.001 µmol/kg (Trachea [7]) does the source give for `Cn1nc(C(=O)O)cc1COc1cccc([C@@H](NC(=O)O[C@H]2CN3CCC2CC3)c2ccccc2)c1` here?
**A.** Its inhibition in vivo at 0.001 µmol/kg is 1.92%.

**Q.** And the half-life [8]?
**A.** The half-life was 1240 min.

**Q.** What about the AUC(0-t) at 72 h [9] of the same compound?
**A.** Its AUC(0-t) at 72 h is 179 ng·h/mL.

**Q.** What about the inhibition in vivo at 0.001 µmol/kg (Trachea [10]) of the same compound?
**A.** The inhibition in vivo at 0.001 µmol/kg was 3.36%.

**Q.** And the Activity [11]?
**A.** The Activity was “Non-Toxic”.

**Q.** What about the Tmax [12] of the same compound?
**A.** The Tmax was 4.98 min.

**Q.** What about the Tmax [13] of the same compound?
**A.** Its Tmax is 4.98 min.

**Q.** What about the Activity [14] of the same compound?
**A.** Its Activity is “Non-Toxic”.

**Q.** And the inhibition in vivo at 0.001 µmol/kg (Trachea [15])?
**A.** Its inhibition in vivo at 0.001 µmol/kg is 0.84%.

**Q.** And the AUClast [16]?
**A.** Its AUClast is 6226 ng·h/g.

**Q.** What about the AUC [17] of the same compound?
**A.** The AUC was 6465 ng·h/g.

**Q.** What about the Cmax [18] of the same compound?
**A.** Its Cmax is 1450 ng/g.

**Q.** What about the half-life [19] of the same compound?
**A.** The half-life was 316 min.

**Q.** What about the AUC(0-inf) [20] of the same compound?
**A.** Its AUC(0-inf) is 296 ng·h/mL.

**Q.** And the Cmax [21]?
**A.** Its Cmax is 41.7 ng/g.
